Conditions: Liquid, Buoyancy - hydrostatic balance with magnetic suspension - one sinker

Cc1ccccc1 [toluene]
Conditions	mass density [kg/m3]
333.15 K, 9960.3 kPa	838.314
333.15 K, 12120 kPa	840.218
333.15 K, 14111 kPa	841.938
333.15 K, 15857 kPa	843.417
333.15 K, 18129 kPa	845.312
333.15 K, 19860 kPa	846.724
333.15 K, 22144 kPa	848.558
333.15 K, 24050 kPa	850.059
333.15 K, 25886 kPa	851.479
333.15 K, 28037 kPa	853.128
333.15 K, 29895 kPa	854.529
353.15 K, 100.22 kPa	809.674
353.15 K, 1169.9 kPa	810.881
353.15 K, 2003.6 kPa	811.814
353.15 K, 4142.5 kPa	814.153
353.15 K, 6005.5 kPa	816.142
353.15 K, 8141.3 kPa	818.365
353.15 K, 10004 kPa	820.255
353.15 K, 12008 kPa	822.24
353.15 K, 14198 kPa	824.368
353.15 K, 16142 kPa	826.212
353.15 K, 18101 kPa	828.027
353.15 K, 19917 kPa	829.683
353.15 K, 22138 kPa	831.662
353.15 K, 24034 kPa	833.323
353.15 K, 26059 kPa	835.06
353.15 K, 28105 kPa	836.785
353.15 K, 29954 kPa	838.316
373.15 K, 1259.9 kPa	791.299
373.15 K, 2065.8 kPa	792.34
373.15 K, 3870.7 kPa	794.611
373.15 K, 6198.3 kPa	797.456
373.15 K, 8095.9 kPa	799.709
373.15 K, 9917.3 kPa	801.809
373.15 K, 12114 kPa	804.274
373.15 K, 13934 kPa	806.263
373.15 K, 16020 kPa	808.493
373.15 K, 18023 kPa	810.573
373.15 K, 19927 kPa	812.508
373.15 K, 22108 kPa	814.677
373.15 K, 23970 kPa	816.486
373.15 K, 25950 kPa	818.372
373.15 K, 27874 kPa	820.167
373.15 K, 29907 kPa	822.029
393.15 K, 1097.4 kPa	770.672
393.15 K, 1998.7 kPa	772.03
393.15 K, 4084.6 kPa	775.078
393.15 K, 6214.8 kPa	778.084
393.15 K, 8059.3 kPa	780.589
393.15 K, 9988.4 kPa	783.137
393.15 K, 12134 kPa	785.871
393.15 K, 14051 kPa	788.257
393.15 K, 16078 kPa	790.683
393.15 K, 18012 kPa	792.945
393.15 K, 19811 kPa	794.994
393.15 K, 22110 kPa	797.55
393.15 K, 23923 kPa	799.514
393.15 K, 25870 kPa	801.576
393.15 K, 27974 kPa	803.747
393.15 K, 29891 kPa	805.692
413.15 K, 1099.1 kPa	749.389
413.15 K, 1960.8 kPa	750.924
413.15 K, 4038.3 kPa	754.503
413.15 K, 6026.6 kPa	757.773
413.15 K, 8189.1 kPa	761.18
413.15 K, 9852 kPa	763.702
413.15 K, 12117 kPa	767.016
413.15 K, 14168 kPa	769.904
413.15 K, 16108 kPa	772.544
413.15 K, 18095 kPa	775.165
413.15 K, 20104 kPa	777.733
413.15 K, 22152 kPa	780.275
413.15 K, 24009 kPa	782.518
413.15 K, 25996 kPa	784.857
413.15 K, 27793 kPa	786.922
413.15 K, 29815 kPa	789.193
433.15 K, 1101.8 kPa	726.984
433.15 K, 1976.7 kPa	728.858
433.15 K, 4084.4 kPa	733.177
433.15 K, 6154.5 kPa	737.18
433.15 K, 8078.7 kPa	740.731
433.15 K, 9952.6 kPa	744.032
433.15 K, 11980 kPa	747.451
433.15 K, 13969 kPa	750.677
433.15 K, 16091 kPa	753.964
433.15 K, 17961 kPa	756.765
433.15 K, 19890 kPa	759.561
433.15 K, 22082 kPa	762.624
433.15 K, 24002 kPa	765.215
433.15 K, 26049 kPa	767.899
433.15 K, 27836 kPa	770.185
433.15 K, 29993 kPa	772.844
453.15 K, 1107.5 kPa	703.102
453.15 K, 2037.8 kPa	705.548
453.15 K, 4185.3 kPa	710.874
453.15 K, 6060.4 kPa	715.218
453.15 K, 8005.2 kPa	719.474
453.15 K, 9870.3 kPa	723.328
453.15 K, 12115 kPa	727.721
453.15 K, 14139 kPa	731.482
453.15 K, 16027 kPa	734.835
453.15 K, 17928 kPa	738.09
453.15 K, 20153 kPa	741.727
453.15 K, 22071 kPa	744.756
453.15 K, 24057 kPa	747.767
453.15 K, 26029 kPa	750.661
453.15 K, 27966 kPa	753.404
453.15 K, 29817 kPa	755.955
473.15 K, 1104.4 kPa	677.2
473.15 K, 2031.3 kPa	680.289
473.15 K, 4033.8 kPa	686.456
473.15 K, 6024.4 kPa	692.111
473.15 K, 7930.8 kPa	697.122
473.15 K, 10107 kPa	702.459
473.15 K, 11931 kPa	706.639
473.15 K, 13959 kPa	711.045
473.15 K, 16004 kPa	715.254
473.15 K, 17878 kPa	718.918
473.15 K, 19844 kPa	722.599
473.15 K, 22088 kPa	726.587
473.15 K, 24074 kPa	729.989
473.15 K, 26038 kPa	733.203
473.15 K, 27840 kPa	736.071
473.15 K, 29806 kPa	739.091

Source: the NIST ThermoML archive (doi:10.1016/j.jct.2010.08.010)
